Laboratory results: US9596857B2, “Insecticidal and miticidal mixtures of bifenthrin and cyano-pyrethroids” (FMC Corporation, priority 2005, dated 2017)
“And” between values parts separate entries of the source, which are not always exact repeats. Identical values can stand only once.

How the values were obtained:
Type in all cases: in vivo
[1] = test system: corn earworm (Helicoverpa zea [Boddie]); test: Cotton leaf-disc dip test against corn earworm; details: technical, 96 h
Description: (§1) Candidate insecticide compositions were evaluated for activity in foliar evaluations against tobacco budworm (Heliothis virescens [Fabricius]), Colorado potato beetle (Leptinotarsa decemlineata [Say]), corn earworm (Helicoverpa zea [Boddie]), cotton aphid (Aphis gossypii [Glover]) and twospotted spider mite (Tetranychus urticae [Koch]). Each test included controls in which the formulation or test solution minus the active ingredients were applied.
In tests against corn earworm, one inch diameter leaf discs cut from cotton plant leaves (Gossypium hirsutum) were dipped into the test solutions of the test formulations to provide application rates as high as 1000 ppm of the active ingredients. The test formulations were dissolved in distilled water containing 10% acetone and 0.25% of a non-ionic detergent [an octylphenolpoly(ethyleneglycolether)x, available from Roche Applied Science as Triton X-100] to the proper concentrations. Cotton wicks, 0.5 inch diameter by 2 inches long, were soaked with distilled water and placed into the wells of a 32 well rearing tray (available as Rearing Tray Bio-Fit 32, from C-D International, Pittman, N.J.), one wick per well. Treated leaf discs were placed on top of the cotton wicks, one leaf disc per wick, and the rearing tray was transferred to a hood where they were kept until the leaf discs had dried. Each disc was infested with 1 late second to early third instar corn earworm, replicated sixteen times per rate of application, and a lid was placed on the rearing tray. The rearing trays were held in a growth chamber for 96 hours at 25° C., 50% relative humidity and a photoperiod of 12 hours light/12 hours dark. For tests in which the active ingredients were not formulated, i.e. the technical active ingredient was used; a stock solution of the test compound was made. For example, a 100 ppm stock solution may be made by dissolving 4 milligrams of the test compound in 4 mL of acetone and adding the solution to 36 mL of an aqueous Triton X-100 solution (one drop of Triton X-100 dissolved in 100 mL of distilled water). Further dilutions can be made by adding distilled water containing 10% acetone and 0.25% of Triton X-100.
(§2) At the end of the 96 hour exposure period, the rearing tray was opened, and the numbers of dead and live insects were counted. […] Using the insect counts, the activity of the test chemical was expressed in percent control. Percent control is derived from the total number of dead insects (TD) compared to the total number of insects (TI) in the test: […]

[2] = test system: Colorado potato beetle (Leptinotarsa decemlineata [Say]); test: Foliar leaf-dip test against adult Colorado potato beetle on tomato plants; details: technical, 72 h
Description: as §1
In tests against adult Colorado potato beetle, the leaves of 6-8 inch tall tomato plants (Lycopersicon lycoper) were dipped into the test solutions of the test formulations to provide application rates as high as 1000 ppm of the active ingredients. The test formulations were dissolved in distilled water containing 10% acetone and 0.25% of a non-ionic detergent [an octylphenolpoly(ethyleneglycolether)x, available from Roche Applied Science as Triton X-100] to the proper concentrations. The treated plants were transferred to a hood where they were kept until the leaves had dried. For tests in which the active ingredients were not formulated, i.e. the technical active ingredient was used; a stock solution of the test compound was made. For example, a 100 ppm stock solution may be made by dissolving 4 milligrams of the test compound in 4 mL of acetone and adding the solution to 36 mL of an aqueous Triton X-100 solution (one drop of Triton X-100 dissolved in 100 mL of distilled water). Further dilutions can be made by adding distilled water containing 10% acetone and 0.25% of Triton X-100.
The treated tomato plants were removed from their pots by cutting the stems just above the soil line. Each excised plant was placed into an individual 8-ounce paper cup. Ten adult Colorado potato beetles were placed into each paper cup, taking care not to cause injury. An opaque plastic lid was placed on each cup, for a 72 hour exposure period and held at 25° C., 50% relative humidity with a photo-period of 12 hours light and 12 hours dark. At the end of the 72 hour exposure period, the cups were opened, and the numbers of dead and live insects were counted. Using the insect counts, the activity of the test chemical was expressed in percent control. Percent control is derived from the total number of dead insects (TD) compared to the total number of insects (TI) in the test: […]

[3] = test system: twospotted spider mite (Tetranychus urticae [Koch]); test: Foliar leaf-dip test against twospotted spider mite on pinto bean plants; details: technical, 96 h
Description: as §1
In tests against twospotted spider mites, the leaves of potted 3 to 4 inch tall pinto bean plants (Phaseolus vulgaris) were infested with about 50 to 75 adult twospotted spider mites by placing leaf cuttings from a twospotted spider mite colony host pinto bean plant on the upper surface of the test plant leaves. After about 1 hour the newly infested pinto bean leaves were dipped into the test solutions of the test formulations to provide application rates as high as 1000 ppm of the active ingredients. The test formulations were dissolved in, and diluted as necessary, with distilled water containing 10% acetone and 0.25% of a non-ionic detergent [an octylphenolpoly(ethyleneglycolether)x, available from Roche Applied Science as Triton X-100] to the proper concentrations. The treated plants were transferred to a hood where they were kept until the leaves had dried. Once dry, the potted plants were placed into a tray containing at least one inch of water. The plants were spaced far enough apart to prevent the mites from moving between plants. The trays were held in a growth chamber for 96 hours at 25° C., 50% relative humidity and a photoperiod of 14 hours light/10 hours dark. For tests in which the active ingredients were not formulated, i.e. the technical active ingredient was used; a stock solution of the test compound was made. For example, a 100 ppm stock solution may be made by dissolving 4 milligrams of the test compound in 4 mL of acetone and adding the solution to 36 mL of an aqueous Triton X-100 solution (one drop of Triton X-100 dissolved in 100 mL of distilled water). Further dilutions can be made by adding distilled water containing 10% acetone and 0.25% of Triton X-100.
as §2, with “period” for “period, the rearing tray was opened, and”

[4] = test system: cotton aphid (Aphis gossypii [Glover]); test: Foliar leaf-dip test against cotton aphid on tomato plants; details: technical, 72 h
Description: as §1
In tests against cotton aphid, the leaves of 6 to 8 inch tall tomato plants (Lycopersicon lycoper) were infested with about 50 cotton aphids by placing leaf cuttings from a cotton aphid colony host tomato plant. After about 12 hours the newly infested tomato leaves were dipped into the test solutions of the test formulations to provide application rates as high as 1000 ppm of the active ingredients. The test formulations were dissolved in, and diluted as necessary, with distilled water containing 10% acetone and 0.25% of a non-ionic detergent [an octylphenolpoly(ethyleneglycolether)x, available from Roche Applied Science as Triton X-1001 to the proper concentrations. After treatment, a square of parafilm was placed around the stem of each test plant, covering the soil of each pot in order to catch dead aphids that fall from the leaves. The treated plants were transferred to a hood where they were kept until the leaves had dried. Once dry, the potted plants were placed into a tray containing at least one inch of water. The plants were spaced far enough apart to prevent the aphids from moving between plants. The trays were held in a growth chamber for 72 hours at 25° C., 50% relative humidity and a photoperiod of 14 hours light/10 hours dark. For tests in which the active ingredients were not formulated, i.e. the technical active ingredient was used; a stock solution of the test compound was made. For example, a 100 ppm stock solution may be made by dissolving 4 milligrams of the test compound in 4 mL of acetone and adding the solution to 36 mL of an aqueous Triton X-100 solution (one drop of Triton X-100 dissolved in 100 mL of distilled water). Further dilutions can be made by adding distilled water containing 10% acetone and 0.25% of Triton X-100.
At the end of the 72 hour exposure period the numbers of dead and live insects were counted. Insects were classified as “dead” if they were off-color or brown and desiccated. Using the insect counts, the activity of the test chemical was expressed in percent control. Percent control is derived from the total number of dead insects (TD) compared to the total number of insects (TI) in the test: […]

[5] = cyano-pyrethroid 0.3 ppm alone (bifenthrin 0.0 ppm)
[6] = cyano-pyrethroid 1.0 ppm alone (bifenthrin 0.0 ppm)
[7] = cyano-pyrethroid 3.0 ppm alone (bifenthrin 0.0 ppm)
[8] = cyano-pyrethroid 10.0 ppm alone (bifenthrin 0.0 ppm)
[9] = cyano-pyrethroid 0.3 ppm alone (bifenthrin 0 ppm)
[10] = cyano-pyrethroid 1.0 ppm alone (bifenthrin 0 ppm)
[11] = cyano-pyrethroid 3.0 ppm alone (bifenthrin 0 ppm)
[12] = cyano-pyrethroid 10.0 ppm alone (bifenthrin 0 ppm)
[13] = cyano-pyrethroid 30.0 ppm alone (bifenthrin 0 ppm)
[14] = cyano-pyrethroid 100.0 ppm alone (bifenthrin 0 ppm)
[15] = cyano-pyrethroid 200.0 ppm alone (bifenthrin 0 ppm)
[16] = bifenthrin 1.0 ppm alone (cyano-pyrethroid 0 ppm)

With `CC(C)[C@H](C(=O)O[C@H](C#N)c1cccc(Oc2ccccc2)c1)c1ccc(Cl)cc1` [esfenvalerate, (S)-α-cyano-3-phenoxybenzyl (S)-2-(4-chlorophenyl)-3-methylbutyrate] the “% Mortality Corn Earworm” value [1, 5] was 0%, the “% Mortality Corn Earworm” value [1, 6] was 0% and the “% Mortality Corn Earworm” value [1, 7] was 13%. The “% Mortality Corn Earworm” value [1, 8] was 50%, the “% Mortality Adult Colorado Potato Beetle” value [2, 9] was 0% and the “% Mortality Adult Colorado Potato Beetle” value [2, 10] was 0%. The “% Mortality Adult Colorado Potato Beetle” value [2, 11] was 5%, the “% Mortality Adult Colorado Potato Beetle” value [2, 12] was 95% and the “% Mortality Twospotted Spider Mite” value [3, 12] was 21%. For the same molecule, the “% Mortality Twospotted Spider Mite” value [3, 13] was 25%, the “% Mortality Twospotted Spider Mite” value [3, 14] was 71% and the “% Mortality Twospotted Spider Mite” value [3, 15] was 91%. The “% Mortality Cotton Aphid” value [4, 13] was 38%, the “% Mortality Cotton Aphid” value [4, 14] was 14% and the “% Mortality Cotton Aphid” value [4, 15] was 15%.

For `Cc1c(COC(=O)[C@@H]2[C@H](/C=C(\Cl)C(F)(F)F)C2(C)C)cccc1-c1ccccc1` (racemic) [bifenthrin, 2-methylbiphenyl-3-ylmethyl (Z)-(1RS)-cis-3-(2-chloro-3,3,3-trifluoroprop-1-enyl)-2,2-dimethyl cyclopropanecarboxylate], the mortality at 0.1 ppm ([1]; Helicoverpa zea, bifenthrin 0.1 ppm alone (cyano-pyrethroid 0 ppm)) was 6%, the mortality at 0.3 ppm ([1]; Helicoverpa zea, bifenthrin 0.3 ppm alone (cyano-pyrethroid 0 ppm)) was 13% and the “% Mortality Corn Earworm” value ([1]; bifenthrin 0.3 ppm alone (cyano-pyrethroid 0 ppm)) was 25%. The “% Mortality Corn Earworm” value [1, 16] was 100% and 75% and 63%, the mortality at 0.3 ppm ([2]; Leptinotarsa decemlineata, foliar, bifenthrin 0.3 ppm alone (cyano-pyrethroid 0 ppm)) was 0% and the “% Mortality Adult Colorado Potato Beetle” value [2, 16] was 10%. For the same molecule, the mortality at 60 ppm ([3]; Tetranychus urticae, foliar, bifenthrin 60.0 ppm alone (cyano-pyrethroid 0 ppm)) was 68%, the “% Mortality Twospotted Spider Mite” value ([3]; bifenthrin 30.0 ppm alone (cyano-pyrethroid 0 ppm)) was 66% and 100% and 69% and the “% Mortality Twospotted Spider Mite” value ([3]; bifenthrin 100.0 ppm alone (cyano-pyrethroid 0 ppm)) was 75% and 90% and 100%. The mortality at 200 ppm ([4]; Aphis gossypii, foliar, bifenthrin 200.0 ppm alone (cyano-pyrethroid 0 ppm)) was 100%.

In the case of `CC1(C)[C@H](C(=O)O[C@H](C#N)c2cccc(Oc3ccccc3)c2)[C@@H]1C=C(Br)Br` [delta-methrin, (S)-α-cyano-3-phenoxybenzyl (1R)-cis-3-(2,2-dibromovinyl)-2,2-dimethylcyclopropanecarboxylate], the “% Mortality Corn Earworm” value [1, 5] is reported as 6%, the “% Mortality Corn Earworm” value [1, 6] is reported as 50% and the “% Mortality Corn Earworm” value [1, 7] is reported as 94%. The “% Mortality Corn Earworm” value [1, 8] was 100%, the “% Mortality Adult Colorado Potato Beetle” value [2, 9] was 0% and the “% Mortality Adult Colorado Potato Beetle” value [2, 10] was 30%. The “% Mortality Adult Colorado Potato Beetle” value [2, 11] was 90%, the “% Mortality Adult Colorado Potato Beetle” value [2, 12] was 100% and the “% Mortality Twospotted Spider Mite” value [3, 12] was 3%. The “% Mortality Twospotted Spider Mite” value [3, 13] was 83%, the “% Mortality Twospotted Spider Mite” value [3, 14] was 26% and the “% Mortality Twospotted Spider Mite” value [3, 15] was 16%. For the same molecule, the “% Mortality Cotton Aphid” value [4, 13] was 7%, the “% Mortality Cotton Aphid” value [4, 14] was 8% and the “% Mortality Cotton Aphid” value [4, 15] was 19%.

With `CC1(C)[C@H](C(=O)O[C@H](C#N)c2cccc(Oc3ccccc3)c2)[C@@H]1/C=C(\Cl)C(F)(F)F` (racemic) [lambda-cyhalothrin, (S)-α-cyano-3-phenoxybenzyl-(Z)-(1R)-cis-3-(2-chloro-3,3,3-trifluoropropenyl)-2,2-dimethylcyclopropanecarboxylate and (R)-α-cyano-3-phenoxybenzyl-(Z)-(1S)-cis-3-(2-chloro-3,3,3-trifluoropropenyl)-2,2-dimethylcyclopropanecarboxylate] the “% Mortality Corn Earworm” value [1, 5] was 6%, the “% Mortality Corn Earworm” value [1, 6] was 31% and the “% Mortality Corn Earworm” value [1, 7] was 56%. The “% Mortality Corn Earworm” value [1, 8] was 100%, the “% Mortality Adult Colorado Potato Beetle” value [2, 9] was 30% and the “% Mortality Adult Colorado Potato Beetle” value [2, 10] was 100%. For the same molecule, the “% Mortality Adult Colorado Potato Beetle” value [2, 11] was 100%, the “% Mortality Adult Colorado Potato Beetle” value [2, 12] was 100% and the “% Mortality Twospotted Spider Mite” value [3, 12] was 16%. The “% Mortality Twospotted Spider Mite” value [3, 13] was 19%, the “% Mortality Twospotted Spider Mite” value ([3]; cyano-pyrethroid 60.0 ppm alone (bifenthrin 0 ppm)) was 55% and the “% Mortality Twospotted Spider Mite” value [3, 14] was 39%. The “% Mortality Cotton Aphid” value [4, 12] was 11%, the “% Mortality Cotton Aphid” value [4, 13] was 11% and the “% Mortality Cotton Aphid” value [4, 14] was 10%.
